Reference: the CheMixHub viscosity set
Several values for one entry are separate records, joined by “and”; a condition that tells them apart may be missing. Equal values may be shown once.

Legend:
[1] = xn = mol fraction of the nth substance listed

CCCOCCO
viscosity
Conditions	293.15 K	298.15 K	303.15 K	308.15 K	318.15 K
101 kPa	2.575 mPa·s	2.35 mPa·s and 2.35 mPa·s	2.07 mPa·s and 2.124 mPa·s	–	–
101.33 kPa	–	2.351 mPa·s	–	1.895 mPa·s	1.448 mPa·s

N#Cc1ccccc1
Conditions	viscosity
293.15 K, 101 kPa	1.335 mPa·s
293.15 K, 101.33 kPa	1.382 mPa·s
298.15 K, 101 kPa	1.237 mPa·s and 1.196 mPa·s and 1.249 mPa·s
298.15 K, 101.33 kPa	1.282 mPa·s
303 K, 100 kPa	1.099 mPa·s
303.15 K, 101 kPa	1.161 mPa·s and 1.121 mPa·s and 1.124 mPa·s
303.15 K, 101.32 kPa	1.139 mPa·s
303.15 K, 101.33 kPa	1.148 mPa·s
308 K, 100 kPa	1.003 mPa·s
308.15 K, 101.33 kPa	1.063 mPa·s and 1.063 mPa·s
313 K, 100 kPa	0.9545 mPa·s
313.15 K, 101 kPa	0.997 mPa·s
313.15 K, 101.33 kPa	0.993 mPa·s
318.15 K, 101 kPa	0.931 mPa·s
323.15 K, 101 kPa	0.872 mPa·s and 0.866 mPa·s

C[C@H]1CCCC[C@H]1O
101 kPa
Conditions	viscosity [mPa·s]
298.15 K	17.98
303.15 K	13.53

CCCC[N+]1=C2CCCCCN2CCC1.c1c[n-]cn1
100 kPa
Conditions	viscosity [mPa·s]
293.15 K	106.7
298.15 K	73.92
303.15 K	53.38
308.15 K	40.19
313.15 K	31.07

Nc1cccc2ccccc12
Conditions	viscosity [mPa·s]
323.15 K, 101.33 kPa	11.2

NNc1ccccc1
101 kPa
Conditions	viscosity
303.15 K	10.09 mPa·s
323.1 K	4.58 mPa·s and 4.58 mPa·s

CC(C)C(C)C
Conditions	viscosity [mPa·s]
298 K, 101.33 kPa	0.3249

CCCC[n+]1ccccc1.O=S(=O)([N-]S(=O)(=O)C(F)(F)F)C(F)(F)F
viscosity [mPa·s]
Conditions	293.15 K	298.15 K	303.15 K	308.15 K	313.15 K	323.15 K
100 kPa	68.87	52.94	41.94	33.75	27.63	–
101 kPa	–	–	49.4	–	33.8	24.2

C1CC[C@H]2CCCC[C@@H]2C1
viscosity [mPa·s]
Conditions	293.15 K	303.15 K	323.15 K
101 kPa	–	1.616	–
101.3 kPa	2.118	–	–
102 kPa	2.14	1.79	1.3

CCOCCOCCOCCO
Conditions	viscosity [mPa·s]
298.15 K, 101.33 kPa	7.042

CCOP(=O)([O-])OCC.CCn1cc[n+](C)c1
100 kPa
Conditions	viscosity [mPa·s]
293.15 K	566
298.15 K	396.6
303.15 K	285.4
308.15 K	208.7
313.15 K	155.3
318.15 K	117.2
323.15 K	91.75

C[N+](C)(C)C.NCC(=O)[O-]
Conditions	viscosity [mPa·s]
303 K, 101 kPa	306.2

CCCCOCCCOCCCO
101.33 kPa
Conditions	viscosity [mPa·s]
298.15 K	4.503
308.15 K	3.313
318.15 K	2.531

CC(C)[C@H](N)C(=O)[O-].CCCC[P+](CCCC)(CCCC)CCCN
Conditions	viscosity [mPa·s]
298.15 K, 101 kPa	1015

NCCOCCOCCN.O=S(=O)([N-]S(=O)(=O)C(F)(F)F)C(F)(F)F.[Li+]
Conditions	viscosity [mPa·s]
323.15 K, 101 kPa	108.2

CCCCC[N+](CC)(CC)CC.O=S(=O)([N-]S(=O)(=O)C(F)(F)F)C(F)(F)F
101.3 kPa
Conditions	viscosity [mPa·s]
293.15 K	233
298.15 K	169
303.15 K	126
308.15 K	96.4
313.15 K	75.1
318.15 K	59.6
323.15 K	48

CCCC[N+]1=C2CCCCCN2CCC1.c1c[n-]cn1 + O
viscosity [mPa·s], [1], 100 kPa
Conditions	x1 = 0.0298	x1 = 0.0697	x1 = 0.0991	x1 = 0.2001	x1 = 0.3002	x1 = 0.439	x1 = 0.5972	x1 = 0.7501	x1 = 0.89
293.15 K	4.316	12.27	19.53	55.65	97.57	133.7	136.6	127.6	117.4
298.15 K	3.347	9.898	15.3	39.88	66.69	88.91	91.45	86.9	80.42
303.15 K	2.838	8.133	12.48	29.5	47.22	61.57	63.37	60.13	57.19
308.15 K	2.449	6.778	9.929	22.51	34.56	44.11	45.74	43.8	41.93
313.15 K	2.138	5.738	8.244	17.58	26.15	32.54	33.55	32.34	31.79

CCCCn1cc[n+](C)c1.[Cl][Fe-]([Cl])([Cl])[Cl]
101 kPa
Conditions	viscosity [mPa·s]
293.15 K	56.56
298.15 K	46
303.15 K	37.95
308.15 K	31.87
313.15 K	27.01
318.15 K	23.24
323.15 K	20.16

CCCCn1cc[n+](C)c1.[Cl-] + CO
[1], 101 kPa
Conditions	viscosity [mPa·s]
293.15 K, x2 = 0.5001	65.2
293.15 K, x2 = 0.7002	8.41
298.15 K, x2 = 0.7015	7.51
308.15 K, x2 = 0.7001	6.61
